According to patent US20230118142A1, “AGENTS FOR USE IN THE TREATMENT OF TISSUE DAMAGE” (UCL BUSINESS LTD, priority 2020, published 2023):

What was measured:
CRP [1] = target: T1, CRP (Homo sapiens, UniProt P02741); experiment: In vivo clearance of preformed CRP/ligand complexes in mice; set-up: from tissue; conditions: complexes formed in vitro, injected intravenously
T1 sequence (P02741 19-224): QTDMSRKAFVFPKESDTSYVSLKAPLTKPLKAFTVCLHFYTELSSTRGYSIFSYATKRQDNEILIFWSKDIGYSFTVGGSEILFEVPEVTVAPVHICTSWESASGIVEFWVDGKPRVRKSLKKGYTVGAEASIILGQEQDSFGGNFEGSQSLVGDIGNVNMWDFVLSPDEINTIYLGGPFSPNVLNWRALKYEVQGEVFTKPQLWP
Protocol: (i) CRP at 1 mg/ml in azide-free TC buffer (containing, in some experiments, ˜10^6 cpm/ml of ^125I-CRP) was incubated with a 5-fold molar excess of ligand. A control (ligand-free) sample was also prepared. Cross linking of CRP was confirmed by SEC in TC buffer of a small sample of complex.
(ii) Two groups of eight wild-type C57BL/6 mice (male; 23-27 weeks old) were used.
The complex or control (200 μl, 200 μg CRP) was injected into the tail vein of each mouse. A single timed collection of blood was taken from the tail vain of each mouse; a second terminal sample was also collected. This yielded 4 samples each at 30, 60, 120 and 180 min for control and treated groups.
(iii) Blood samples were weighed and CRP measured in the Roche assay and, in some cases by electroimmunoassay (4, 13). ^125I-CRP was measured by gamma counting (Perkin Elmer Wizard; protocol #1).
Complexes were prepared in vitro using ^125I-labelled CRP and an excess of ligand, and the mixture was then injected intravenously into mice. Clearance of CRP was monitored by counting of the ^125I-CRP tracer and stable CRP-ligand complexes were detected by lack of CRP detection in the Roche assay of the plasma samples. The formation of CRP/ligand complexes was confirmed by size exclusion chromatography before use in each in vivo experiment.

CRP [2] = target: T1, CRP; experiment: Roche immunoturbidimetric assay: pure CRP; format: binding; set-up: The final concentrations were 0.73 μM native pentameric CRP; from tissue; conditions: pure CRP in TC buffer; read-out: IC50 (μM), SD; inhibition of Roche CRP immunoreactivity
Method in brief: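 Purified human CRP (final 0.73 μM pentamer) incubated 1 h at 37° C with ligand (final 625-0.03 μM) in TC buffer. Remaining CRP quantified by Roche microparticle-enhanced immunoturbidimetric assay, one antibody recognising the ligand-binding B-face, as % of buffer control; EC50 from 4-parameter logistic fit.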

CRP [3] = target: T1, CRP; experiment: In vivo clearance of CRP/ligand complexes generated in vivo in mice; set-up: The final concentrations were 0.73 μM native pentameric CRP; from tissue; conditions: i.v. bolus 18 h after s.c. CRP (1 mg)
Protocol: (i) Two groups of 8 wild-type C57BL/6 mice (male; 23-27 weeks old) were used: group 1 (control) and group 2 (treated).
(ii) Both groups of animals were given 200 μl of human CRP (5 mg/ml in azide-free TC buffer) subcutaneously on day 1.
(iii) On day 2 (+18 h), control animals were given a 200 μl intravenous bolus of TC buffer. Treated animals were given a 200 μl iv bolus of ligand (prepared at 5 mg/ml in TC buffer).
(iv) One timed blood sample and a terminal blood sample were collected from each mouse into heparinised tubes and weighed. This generated data in quadruplicate at 4 time points, normally 30, 60, 120 and 360 minutes.
(v) ^125I radiolabel was measured (Perkin Elmer Wizard; protocol #1) in whole blood to quantify total CRP. In some cases, electroimmunoassay as above was also used to determine total CRP concentration.
(vi) Plasma was prepared and free CRP determined by Roche immunoassay.
Subcutaneous injection of human CRP provided circulating CRP concentrations with which to test for effects of our ligands in vivo. (Table 4).

O=P(O)(OCCCCCCCCOP(=O)(O)O[C@@H]1CN2CCC1CC2)O[C@@H]1CN2CCC1CC2 [Pk-023, [(3S)-1-azabicyclo[2.2.2]octan-3-yloxy]({[8-({[(3S)-1-azabicyclo[2.2.2]octan-3-yloxy](hydroxy)phosphoryl}oxy)octyl]oxy})phosphinic acid]
Time Roche CRP value suppressed (persistence of preformed complex in circulation) (CRP [1]): suppressed at 15 min but was had returned to control value at 60 min
IC50 (CRP [2]): 0.6 µM
Effect on detection of circulating CRP in the Roche assay (CRP [3]): the same as BPC8
